From US11339122B2, “hTRPV1 chemical agents” (UNIVERSITY OF PITTSBURGH—OF THE COMMONWEALTH SYSTEM OF …, priority 2015, dated 2022) come the findings set out here.

Values joined by “and” are separate entries in the source; they are usually repeats but may differ in a detail not shown here. Equal values may be shown once.

One may read the Ki as the dissociation constant of the complex between target and ligand, obtained from inhibition or displacement. As a reminder, the inhibition is the drop in the measured response relative to a control, in per cent. A higher inhibition goes with a strong effect. As usually defined, the % inhibition is the relative decrease from the control value, in per cent. Lower therefore signals little suppression. As a reminder, the EC50 is the concentration that produces a half-maximal response.

The target in assay [1] is T1, hTRPV1 (Homo sapiens (Human), UniProt Q8NER1). Description: Ca2+ uptake assay, capsaicin antagonism (CHO-hTRPV1 cells). Format: cell-based. Particulars: for Ki: capsaicin (30 nM) stimulated Ca2+ uptake; for inhibition at 30 µM / % inhibition at 30 μM (capsaicin antagonism): compound at 30 μM, capsaicin 30 nM. How it is done: (§1) Tet-On induced CHO-hTRPV1 cells were cultured in maintaining medium (F12 supplemented with 10% TET-free FBS [Atlanta Biologicals, GA], 25 mM HEPES, 10 μg/ml blasticidin and 250 μg/ml geneticin (all from Invitrogen Life Sciences; Grand Island, N.Y.). TRPV1 protein was induced with induction medium (F12 supplemented with 10% FBS, 25 mM HEPES, and 1 μg/ml tetracycline) as described below for ligand binding and Ca uptake measurements.
(§2) CHO-hTRPV1 cells were plated in 24-well plates, reaching 40 to 60% confluence in maintaining medium after 24 hours. The cells were washed once with Dulbecco's phosphate buffered saline (DPBS; Invitrogen, Grand Island, N.Y.) to remove antibiotics, and fresh medium with tetracycline (inducing medium) was added to induce TRPV1 expression. Experiments were done approximately 24 hours after induction. The cells were at least 90% confluent at the time of the assays.
(§3) For agonist Ca^2+ uptake assays, the inducing medium was aspirated and replaced by DMEM (supplemented with bovine serum albumin (0.25 mg/mL), […], and 100 μl of increasing concentrations of the non-radioactive ligand for a total volume of 400 μl/well. The cells were incubated for 5 min in a water bath at 37° C. For uptake measurements by a full agonist, a saturating concentration of capsaicin (3000 nM) was used as a positive control. Immediately after incubation, the assay medium was aspirated and the cells were washed twice with ice cold DPBS (no Ca^2+ & Mg^2+).The cells were then lysed in radioimmunoprecipitation assay buffer (50 mM Tris-Cl pH 7.5, 150 mM NaCl, 1% Triton X-100, 1% SDS, and 1% sodium deoxycholate; 400 μL/well) for at least 40 min on a shaker. Aliquots (300 μL) of the cell lysates were counted in a liquid scintillation counter. Background uptake was determined in the absence of either compound or capsaicin. For the antagonism assays, capsaicin (30 nM) was included along with increasing concentrations of the ligand being evaluated. The cells were incubated for 5 min in a water bath at 37° C. Immediately after incubation, the assay medium was aspirated and the cells were washed twice with ice-cold DPBS (no Ca^2+ & Mg^2+). The cells were then lysed in radioimmunoprecipitation assay buffer for at least 40 min on a shaker. Aliquots of the cell lysate were counted in a liquid scintillation counter. Triplicate points at each concentration of ligand were determined in each experiment. Compounds were initially screened at a concentration of 30 µM. Compounds showing greater than 10% agonism/antagonism were evaluated in triplicate experiments. As indicated, full dose response curves for compounds showing activity were performed at least three times. Data was analyzed using GraphPad Prism.

The target in assay [2] is T1, hTRPV1. Briefly: [3H]RTX competition binding assay (membranes of induced CHO-hTRPV1 cells). To be noted: approximately 2 nM [3H]RTX, 37° C., 60 minutes; read-out: Ki for inhibition of [3H]RTX binding to hTRPV1. On the procedure: as §1
Binding studies with [^3H]RTX were carried out as follows. The binding assay mixtures were prepared in 1.5 ml centrifuge tubes and consisted of a fixed concentration (approximately 2 nM) of [^3H]RTX (37 Ci/mmol specific activity, PerkinElmer Life Sciences), various concentrations of competing ligands, and […] of membranes from induced CHO-hTRPV1 expressing cells (approximately 1-3×10^6 cells) in Dulbecco's phosphate buffered saline (DPBS, with Ca^2+ & Mg^2+) for a total volume of 350 μl. The assay mix contained bovine serum albumin at a final concentration of 0.25 mg/ml (Cohn fraction V; Sigma-Aldrich, St. Louis, Mo.). In each set of experiments, nonspecific binding were determined in the presence of 200 nM non-radioactive RTX. The binding reaction was initiated by placing the assay mixture in a 37° C. shaking water bath for 60 minutes ([…]). The assay mixture was then chilled on ice for 2-3 min before adding 100 μl of α1-acid glycoprotein (2 mg/ml; Sigma-Aldrich) and mixed thoroughly. The tubes were kept on ice for an additional 10 min. The bound and free ligands were then separated by centrifugation (12,200 rpm for 15 minutes) in a Beckman Coulter centrifuge Allegra 21R. 200 μl of supernatant was collected for determination of free ligand. The remainder was removed by aspiration. The bottom portion of the tubes containing the membranes was cut off and bound radioactivity determined. Radioactivity was measured by scintillation counting. Data were analyzed using GraphPad Prism. Ki values for compounds were determined by competition for binding of [^3H]RTX to the hTRPV1 and represent the mean SEM of triplicate binding curves. […]

In assay [3] the target is cannabinoid receptor 2 (CB2) (Homo sapiens (Human), UniProt P34972). Description: Binding at the cannabinoid receptor 2 (CB2).
Assay [4] concerns the target T1, hTRPV1. Briefly: Agonist Ca2+ uptake assay (CHO-hTRPV1 cells). Format: cell-based. On the procedure: as §1, §2
as §3, with “The cells were incubated for 5 min in a water bath at 37° C. Immediately after incubation, the assay medium was aspirated and the cells were washed twice with ice-cold DPBS (no Ca^2+ & Mg^2+). The cells were then lysed in radioimmunoprecipitation assay buffer for at least 40 min on a shaker.” left out, “Triplicate points at each concentration of ligand were determined in each experiment. Compounds were initially screened at a concentration of 30 µM. Compounds showing greater than 10% agonism/antagonism were evaluated in triplicate experiments. As indicated, full dose response curves for compounds showing activity were performed at least three times.” left out

T1 sequence (Q8NER1 whole entry): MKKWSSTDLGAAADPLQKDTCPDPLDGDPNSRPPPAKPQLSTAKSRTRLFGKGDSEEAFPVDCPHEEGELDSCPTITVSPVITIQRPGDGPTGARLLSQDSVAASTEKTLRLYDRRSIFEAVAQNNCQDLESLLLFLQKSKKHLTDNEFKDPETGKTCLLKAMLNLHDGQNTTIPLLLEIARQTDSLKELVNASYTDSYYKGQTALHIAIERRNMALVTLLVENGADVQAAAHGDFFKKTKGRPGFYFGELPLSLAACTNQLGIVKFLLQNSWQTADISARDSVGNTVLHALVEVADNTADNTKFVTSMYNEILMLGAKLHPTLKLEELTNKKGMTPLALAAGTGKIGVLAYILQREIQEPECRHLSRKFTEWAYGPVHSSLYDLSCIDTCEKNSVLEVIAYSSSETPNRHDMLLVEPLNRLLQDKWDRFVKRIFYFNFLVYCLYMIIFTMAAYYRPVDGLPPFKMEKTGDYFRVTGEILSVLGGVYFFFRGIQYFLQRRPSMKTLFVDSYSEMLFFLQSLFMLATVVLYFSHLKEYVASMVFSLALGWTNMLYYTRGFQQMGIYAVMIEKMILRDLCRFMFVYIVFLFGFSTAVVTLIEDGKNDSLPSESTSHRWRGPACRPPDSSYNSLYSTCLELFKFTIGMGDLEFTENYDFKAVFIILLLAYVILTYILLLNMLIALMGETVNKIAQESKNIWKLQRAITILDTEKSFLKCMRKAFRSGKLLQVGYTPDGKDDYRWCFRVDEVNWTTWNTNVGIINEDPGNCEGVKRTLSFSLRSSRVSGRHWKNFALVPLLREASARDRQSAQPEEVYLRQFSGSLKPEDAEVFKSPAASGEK
cannabinoid receptor 2 (CB2), sequence (P34972 whole entry, species assumed): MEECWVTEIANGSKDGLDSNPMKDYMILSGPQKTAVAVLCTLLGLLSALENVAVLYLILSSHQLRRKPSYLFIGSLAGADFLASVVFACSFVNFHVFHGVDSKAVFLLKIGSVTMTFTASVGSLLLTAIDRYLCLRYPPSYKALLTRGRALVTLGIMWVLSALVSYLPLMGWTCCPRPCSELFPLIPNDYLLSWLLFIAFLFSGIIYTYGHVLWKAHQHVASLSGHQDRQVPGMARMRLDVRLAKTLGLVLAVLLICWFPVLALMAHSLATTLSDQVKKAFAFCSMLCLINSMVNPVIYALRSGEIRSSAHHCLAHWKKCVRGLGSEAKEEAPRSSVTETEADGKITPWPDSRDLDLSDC

As for `Cc1cc([N+](=O)[O-])ccc1NC(=O)Nc1cccc(F)c1` [Compound 2], the Ki at hTRPV1 [1] was 4.5 µM and 4.52 µM; on hTRPV1 [1] (listed as compound 2), 4.5 ± 0.88 µM; at hTRPV1 [2] it was 5.2 ± 0.32 µM. 30 µM produced 79.9 ± 4.9% inhibition on hTRPV1 [1].
`O=C(Nc1ccc(F)c([N+](=O)[O-])c1)Nc1cccc2c(O)cccc12` [Compound 14]: the inhibition constant (Ki) came to 0.47 ± 0.18 µM on hTRPV1 [1], 0.65 ± 0.26 µM on hTRPV1 [2] and 15.9 µM in assay [3]. In addition, on hTRPV1 [1], the “% inhibition at 30 μM (capsaicin antagonism)” value (“% inhibition at 30 μM” below) came to 100 ± 0%.
Consider `Cc1cc(O)c(C(C)C)cc1NC(=O)Nc1ccc(Br)cc1` [Compound 9], for which the inhibition at 30 µM at hTRPV1 [1] was 27 ± 14%.
The same measure, in the same setting: with `COc1ccc(Cl)cc1NC(=O)Nc1ccc(CCO)cc1` [Compound 7] the figure was 33 ± 7%.
Regarding `CCOC(=O)c1ccc(NC(=O)Nc2ccc(F)cc2)cc1` [Compound 5], the “functional character at hTRPV1” value on hTRPV1 [4] is listed as “partial agonist”. Further, the EC50 on hTRPV1 [4] (Ca2+ uptake, CHO-hTRPV1 cells, read-out: EC50 for capsaicin agonism) came out at 2.84 ± 0.21 µM. Further, on hTRPV1 [4] (relative to 3000 nM capsaicin, read-out: maximal stimulation, % of that by 3000 nM capsaicin (% agonism)), the Emax worked out at 55.7 ± 7.8%.
As for `CCOC(=O)c1ccc(NC(=O)Nc2cc(Cl)ccc2C)cc1` [Compound 6], on hTRPV1 [1], the inhibition at 30 µM turned out to be 34 ± 7%.
Regarding `CSc1ccc(NC(=O)Nc2ccc(Cl)cc2[N+](=O)[O-])cc1` [Compound 11], on hTRPV1 [1], affinity was put at a Ki of 3.7 ± 1.7 µM and the “% inhibition at 30 μM” value turned out to be 61 ± 18%.
On hTRPV1 [1], `Cc1ccc(Cl)cc1NC(=O)Nc1cccc2c(O)cccc12` [Compound 13] gave a Ki of 3.7 ± 1 µM and an inhibition at 30 µM of 72%.
Turning to `CCN(CC)c1ccc(CNS(=O)(=O)c2ccc(NC(C)=O)cc2)cc1` [XIE1-203Y, N-(4-(N-(4-(diethylamino)benzyl)sulfamoyl)phenyl)acetamide], on hTRPV1 [1], the inhibition at 30 µM was found to be 12.7 ± 1%.
On to `CCOC(=O)c1ccc(NC(=O)Nc2cccc(Cl)c2)cc1` [Compound 4], for which, at hTRPV1 [1], the Ki is 11.7 ± 1.3 µM and testing at 30 µM gave an inhibition of 64.5%.
For the molecule `COc1ccc(C)cc1NC(=O)Nc1ccccc1F` [Compound 8], the inhibition at 30 µM against hTRPV1 [1] came to 28 ± 6%.
As to `O=C1C(=O)c2cc(Br)cc([N+](=O)[O-])c2-c2ccc(Br)cc21` [Compound 17], at hTRPV1 [1], the Ki was determined as 2.15 ± 0.72 µM and the “% inhibition at 30 μM” value was determined as 66 ± 11%.
With `Cc1c(Cl)cccc1NC(=O)Nc1cccc(O)c1` [Compound 16], the results for the inhibition constant Ki (at hTRPV1 [1]; in assay [3]) were 0.56 ± 0.16 µM and 12.2 µM, respectively. The inhibition at 30 µM at hTRPV1 [1] was 100%.
Consider `O=C(Nc1cc(C(F)(F)F)ccc1Cl)c1ccccc1F` [Compound 18], for which, at hTRPV1 [1], the Ki turned out to be 7 ± 2 µM and the inhibition at 30 µM was 51.8%.
On to `O=C(Nc1cccc(C(F)(F)F)c1)Nc1ccc([N+](=O)[O-])cc1Cl` [Compound 1], for which, at hTRPV1 [1], the “% inhibition at 30 μM” value came out at 92.2 ± 2.7% and 30 µM produced 98.2 ± 2.7% inhibition. Moreover, the inhibition constant (Ki) on hTRPV1 [2] worked out at 1.11 ± 0.21 µM.
`NC(=O)c1ccccc1NC(=O)Nc1ccc(F)cc1` [Compound 3]: on hTRPV1 [1], at 30 µM the inhibition was 32 ± 8%.
At hTRPV1 [1], `Cc1c(Cl)cccc1NC(=O)Nc1cccc2c(O)cccc12` [Compound 15] showed a Ki of 0.49 ± 0.14 µM and an inhibition at 30 µM of 99.6%. In addition, in assay [3], the affinity, expressed as Ki, was 1.39 µM.
